The source of these data is US11691962B2 (eXIthera Pharmaceuticals, Inc., priority 2018, dated 2023).

The nature of data set [1]: Determination of bioavailability in a dog. The class given is in vivo. The settings on record: plasma, male beagle dogs, IV bolus 1 mg/kg vs oral gavage 5 mg/kg, AUC comparison. How it is done:
The following protocol was used to estimate the bioavailability of test compounds in a dog. Test compounds were formulated in vehicles compatible with intravenous and oral dosing. Test compounds were administered to male beagle dogs via an intravenous bolus at 1 mg/kg (1 mg/mL at a dose volume of 1 mL/kg) or via oral gavage at 5 mg/kg (1 mg/mL at a dose volume of 5 mL/kg). Blood samples were collected via the contralateral (to intravenous bolus) jugular vein or via other accessible vein, at various timepoints following administration out to 24 hours post dose. Plasma samples (EDTA) were obtained by centrifugation (2200×g for 10 minutes at 5° C.) and stored frozen ([…]) until analyzed for parent compound via LC/MS/MS. Pharmacokinetic parameters were estimated from the plasma concentration time data by standard non-compartmental methods utilizing standard analysis software. By comparing the area under the curve (AUC) for IV and PO administration estimates of oral bioavailability were determined.

Data set [2] has as its system beagle dog hepatocytes. In words: Metabolic stability in dog hepatocytes. The settings on record: 2 μM compound. Format: in vitro ADME. The gist of the method: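 Pooled cryopreserved beagle hepatocytes at 500,000 cells/mL in Krebs-Henseleit buffer with 2 μM compound, 37 °C, 5% CO2, sampled out to 180 min. Acetonitrile-quenched samples analysed by LC-MS/MS; percent remaining from peak area versus time zero.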

For data set [3], the system named is Caco-2 cells. In words: Caco-2 cell permeability assay. The settings on record: Papp, 10 μM, 37° C. Format: in vitro ADME, human. The gist of the method:
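Caco-2 monolayers (days 21-25 post-seeding) received 10 μM compound in HBSS-MES pH 6.5 or HBSS-HEPES pH 7.4 (1% DMSO) at 37 °C, for 60 min A-B or 40 min B-A. Donor and receiver samples were quantified by HPLC-MS/MS (SRM), and Papp and recovery were calculated.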
In general terms: Caco-2 cells form a polarised layer with tight junctions and transporters.

Data set [4] concerns human plasma protein. The data set can be described thus: Plasma protein binding by equilibrium dialysis. The class given is in vitro ADME. The settings on record: pooled human plasma, 10 μM, 4 hours at 37° C. The gist of the method: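 Pooled mixed-gender human plasma spiked with compound at 10 μM was dialysed against PBS pH 7.4 for 4 h at 37°C. Both compartments were quantified by HPLC-MS/MS, and % bound was calculated from plasma vs buffer peak areas.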
In general terms: In equilibrium dialysis only unbound substance equilibrates across the membrane.

Where only a bound is given, the exact number is not on record here.

Turning to `CC[C@@H](NC(=O)N1C(=O)[C@H](Cc2ccnc(N)c2)[C@H]1C(=O)N(C)c1ccn(C)n1)c1ccccc1` [Compound 1-3, (2S,3R)-3-((2-aminopyridin-4-yl)methyl)-N2-(1-methyl-1H-pyrazol-3-yl)-N1-((R)-1-phenylpropyl)-N2-methyl-4-oxoazetidine-1,2-dicarboxamide], the bioavailability (usually the share of a dose that reaches the circulation, judged against a reference dose that is usually intravenous) in data set [1] was greater than 30%.

In data set [1], `CC[C@@H](NC(=O)N1C(=O)[C@H](Cc2ccnc(N)c2)[C@H]1C(=O)N(C)c1ccnn1C)c1cccc(Cl)c1` [Compound 1-4, (2S,3R)-3-((2-aminopyridin-4-yl)methyl)-N2-(1-methyl-1H-pyrazol-5-yl)-N1-((R)-1-(3-chlorophenyl)propyl)-N2-methyl-4-oxoazetidine-1,2-dicarboxamide] yielded a bioavailability greater than 30%.

As to `CC[C@@H](NC(=O)N1C(=O)[C@H](Cc2ccnc(N)c2)[C@H]1C(=O)N(C)c1cccs1)c1ccccc1` [Compound 1-10, (2S,3R)-3-((2-aminopyridin-4-yl)methyl)-N2-(thiophen-2-yl)-N1-((R)-1-phenylpropyl)-N2-methyl-4-oxoazetidine-1,2-dicarboxamide], the bioavailability in data set [1] lay within 11 to 30%.

Take `CC[C@@H](NC(=O)N1C(=O)[C@H](Cc2ccnc(N)c2)[C@H]1C(=O)N(C)c1nccn1C)c1ccccc1` [Compound 1-13, (2S,3R)-3-((2-aminopyridin-4-yl)methyl)-N2-(1-methyl-1H-imidazol-2-yl)-N1-((R)-1-phenylpropyl)-N2-methyl-4-oxoazetidine-1,2-dicarboxamide]: the bioavailability in data set [1] is greater than 30%.

Regarding `CC[C@@H](NC(=O)N1C(=O)[C@H](Cc2cc(C)nc(NC)c2)[C@H]1C(=O)N(C)c1nccn1C)c1ccccc1` [Compound 1-45, (2S,3R)-3-((2-methylamino-6-methylpyridin-4-yl)methyl)-N2-(1-methyl-1H-imidazol-2-yl)-N1-((R)-1-phenylpropyl)-N2-methyl-4-oxoazetidine-1,2-dicarboxamide], the bioavailability in data set [1] was in the range of 11 to 30%.

`CC[C@@H](NC(=O)N1C(=O)[C@H](Cc2cc(C)nc(N)c2)[C@H]1C(=O)N(C)c1nccn1C)c1ccccc1` [Compound 1-51, (2S,3R)-3-((2-amino-6-methylpyridin-4-yl)methyl)-N2-(1-methyl-1H-imidazol-2-yl)-N1-((R)-1-phenylpropyl)-N2-methyl-4-oxoazetidine-1,2-dicarboxamide] gave a bioavailability in data set [1] greater than 30%.

With `CC[C@@H](NC(=O)N1C(=O)[C@H](Cc2ccnc(N)c2)[C@H]1C(=O)N(C)c1nccn1C)c1ccc(C)nc1` [Compound 1-81, (2S,3R)-3-((2-aminopyridin-4-yl)methyl)-N2-(1-methyl-1H-imidazol-2-yl)-N1-((R)-1-(6-methylpyridin-3-yl)propyl)-N2-methyl-4-oxoazetidine-1,2-dicarboxamide], the bioavailability in data set [1] was less than 10%.

In data set [1], `CC[C@@H](NC(=O)N1C(=O)[C@H](Cc2cc(C)nc(N)c2)[C@H]1C(=O)N(C)c1ccn(C)n1)c1cccc(Cl)c1` [Compound 1-89, (2S,3R)-3-((2-amino-6-methylpyridin-4-yl)methyl)-N2-(1-methyl-1H-pyrazol-3-yl)-N1-((R)-1-(3-chlorophenyl)propyl)-N2-methyl-4-oxoazetidine-1,2-dicarboxamide] had a bioavailability greater than 30%.

Compound `CC[C@@H](NC(=O)N1C(=O)[C@H](Cc2ccnc(N)c2)[C@H]1C(=O)N(C)c1ccn(C)n1)c1cccc(Cl)c1` [Compound 1-91, (2S,3R)-3-((2-aminopyridin-4-yl)methyl)-N2-(1-methyl-1H-pyrazol-3-yl)-N1-((R)-1-(3-chlorophenyl)propyl)-N2-methyl-4-oxoazetidine-1,2-dicarboxamide] registered a bioavailability in data set [1] greater than 30%.

Compound `CC[C@@H](NC(=O)N1C(=O)[C@H](Cc2ccnc(N)c2)[C@H]1C(=O)N(C)c1ccnn1C)c1ccccc1` [Compound 1-92, (2S,3R)-3-((2-aminopyridin-4-yl)methyl)-N2-(1-methyl 1H-pyrazol-5-yl)-N1-((R)-1-phenylpropyl)-N2-methyl-4-oxoazetidine-1,2-dicarboxamide] displayed a bioavailability in data set [1] greater than 30%.

In the case of “(2S,3R)-3-((2-amino-6-methylpyridin-4-yl)methyl)-N2-(1-methyl-1H-imidazol-2-yl)-N1-((R)-1-(3-fluorophenyl)propyl)-N2-methyl-4-oxoazetidine-1,2-dicarboxamide [Compound 1-120]”, the “Dog Hepatocyte Stability (t1/2)” value in data set [2] is “N (“N” indicates > 240 min)”. Moreover, the “Caco-2 Permeability (A-B)” value in data set [3] (apical to basolateral, 60 min) is on record as “P (“P” indicates < 10 × 10^−6 cm/s)”. For the same compound, in data set [3] (basolateral to apical, 40 min), the “Caco-2 Permeability (B-A)” value was “Q (“Q” indicates 11-30 × 10^−6 cm/s)”. Further, in data set [4], the “PPB (%)” value was “Z (“Z” indicates 50-90%)”.
